The structures appear in SMILES notation.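 Values below derive from 48-hour exposures of cells grown in 96-well plates, with endpoints linearly interpolated between the two concentrations bracketing the appropriate inhibition level. TGI denotes the concentration required for complete inhibition of growth.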

Holding throughout (test): NCI tumour cell line growth inhibition, 48 h
The subject of experiment [1] is XF 498 CNS.
Experiment [2] relates to M19-MEL melanoma.
Experiment [3] has as its system SN12K1 renal.
Experiment [4] concerns DMS 273 small cell lung.
Experiment [5] has as its system P388 leukemia.
In experiment [6] the test system is HOP-18 NSCLC.
Experiment [7] deals with KM20L2 colon.
For experiment [8], the system named is SNB-78 CNS.
Experiment [9] deals with DLD-1 colon.
Experiment [10] relates to P388/ADR leukemia.
The subject of experiment [11] is DMS 114 small cell lung.
The subject of experiment [12] is RXF-631 renal.

On to `O=P1(Oc2ccc(Cl)cc2Cl)Oc2ccc3ccccc3c2-c2c(ccc3ccccc23)O1`, for which the TGI in experiment [1] is 56.7 µM; in [2], 47.9 µM; in [3], 43.1 µM; in [4], greater than 93.2 µM; in experiment [5] it was greater than 100 µM; in experiment [6], greater than 100 µM. Besides, the TGI in experiment [7] was greater than 76.2 µM; in experiment [8] it was greater than 83.8 µM; in [9], greater than 100 µM; in experiment [10], greater than 100 µM.
As to `COc1ccc2cc3[nH]c(=O)cc(O)c3cc2c1OC`, the TGI in experiment [1], in [2], in experiment [11], in experiment [6], in experiment [7] and in experiment [8] was greater than 100 µM each time. This compound also came in with a TGI in [12] greater than 100 µM.
With `COc1ccc(C2SCC(=O)N2NC(=O)c2ccncc2)cc1F` (stereo not drawn), the TGI in experiment [1], in experiment [4], in experiment [11], in experiment [6], in experiment [7] and in experiment [8] was greater than 100 µM throughout. This compound also yielded a TGI in [9] greater than 100 µM.
Turning to `CCCCCCCCCCCCCCCCCCN(C)C(COC)COP(=O)([O-])OCC[N+](C)(C)C` (stereo not drawn), the TGI in experiment [1] came to 39.8 µM; in experiment [2] it was 12.9 µM; in experiment [4] it was 2.92 µM; in experiment [6], 17 µM; in experiment [7], 6.92 µM; in [8], 18.3 µM. Moreover, the TGI in experiment [9] is 13.8 µM; in [12], 26 µM.
Consider `COc1cc2cc3c4cc(OC)c(OC)cc4cc[n+]3cc2cc1OC`, for which the TGI in experiment [1] is greater than 100 µM; in experiment [2], greater than 100 µM; in experiment [3], greater than 100 µM; in [4], greater than 100 µM; in [5], greater than 100 µM; in experiment [11] it was 6.6 µM. The TGI in experiment [6], in experiment [7], in experiment [8], in [9] and in experiment [10] was greater than 100 µM throughout.

The record behind these values is PubChem BioAssay (NCI).
